The text below walks through data of the OPERA property sets (Mansouri et al. 2018).

With `CCCCOCCOCCOC(C)=O`, the boiling point was 245 °C, the log10 vapour pressure (mmHg) is -1.4, the melting point was -32 °C and the ready biodegradability entry was “readily biodegradable”. With `CC(C)CCCl`, the boiling point was 98.9 °C and the melting point is -104 °C. Compound `CCOc1cc(C(C)(C)C)ccc1C1COC(c2c(F)cccc2F)=N1` (stereo not given) displayed a log10 vapour pressure (mmHg) of -7.79 and a melting point of 102 °C. In turn, `Cl.ClCCN(Cc1ccccc1)Cc1ccccc1` yielded a melting point of 192 °C. In the case of `C=CC(C)O` (stereo not given), the ready biodegradability result is “readily biodegradable”.

In the case of `COc1cc(Cl)cc(Cl)c1`, the melting point is 41 °C. On the same count and under the same terms, as for `C[C@]12CC[C@H](O)C[C@H]1CC[C@@H]1[C@@H]2[C@H](O)C[C@]2(C)[C@@H](c3ccc(=O)oc3)CC[C@]12O`, the figure is 254 °C; as for `COc1cc(C(=O)O)cc(OC)c1OC`, 172 °C. Regarding `CCC(CC)COC(C)=O`, the boiling point turned out to be 162 °C.

Regarding `CCNCC.Cl`, the melting point is 228 °C. In the case of `CC(=O)NC12CC3CC(CC(C3)C1)C2`, the melting point was 148 °C.

As for `CC(C)c1ccccc1Cl`, the boiling point is 191 °C and the melting point was -74.4 °C. In the case of `CC[N+](CC)(CCOc1ccc(C(C)(C)CC(C)(C)C)cc1)Cc1ccccc1.[Cl-]`, the melting point came out at 113 °C. On the same count and under the same terms, then `CC(=O)Nc1ccc([N+](=O)[O-])cc1`, with 216 °C. `Nc1cc(F)c(F)c(F)c1F` showed a melting point of 28 °C. `CCOC(=O)c1cccc(C)c1` displayed a boiling point of 234 °C. `Clc1cccc(-c2c(Cl)c(Cl)c(Cl)c(Cl)c2Cl)c1`: the log10 Henry constant (atm·m³/mol) was -4.7.

In the case of `CCCCCCCCCCCCCCCCCO`, the boiling point was found to be 333 °C, the melting point stood at 53.8 °C and the ready biodegradability entry is given as “readily biodegradable”. `COC(=O)C1(S(=O)(=O)c2ccccc2)CCCCC1`: the melting point came out at 114 °C. `CC(C)CCOC(=O)C(C)C` came in with a boiling point of 168 °C. In the case of `N#CCCl`, the boiling point is 126 °C and the log10 vapour pressure (mmHg) worked out at 1.18. As for `CCOC(=S)SSC(=S)OCC`, the melting point was 30 °C. With `COc1cc(C=O)cc(OC)c1O`, the melting point came out at 113 °C and the ready biodegradability result is “readily biodegradable”.

`OCC1CCCCC1` gave a boiling point of 183 °C and a melting point of -43 °C. `OCCN1CCN(CCCN2c3ccccc3C=Cc3ccccc32)CC1` had a melting point of 100 °C. Take `CC(C)=O`: the boiling point was 55.8 °C, the log10 Henry constant (atm·m³/mol) is -4.46, the log10 Koa came to 2.31 and the log10 vapour pressure (mmHg) was 2.36. In addition, the melting point was -96.5 °C and the ready biodegradability entry is reported as “readily biodegradable”.

`CCON=C(CC)C1=C(O)CC(c2c(C)cc(C)cc2C)CC1=O` (stereo not given): the log10 vapour pressure (mmHg) is -8.56 and the melting point was determined as 106 °C. For the compound `CC(C)CCO`, the boiling point came out at 131 °C, the log10 Henry constant (atm·m³/mol) is -4.85, the log10 Koa stood at 4.52 and the log10 vapour pressure (mmHg) is 0.375. Also, the ready biodegradability result was “readily biodegradable”.

As for `Clc1ccc(Cl)c(-c2ccc(Cl)c(Cl)c2)c1`, the log10 Henry constant (atm·m³/mol) is -4, the log10 Koc (L/kg) stood at 4.86, the log10 vapour pressure (mmHg) was -4.39 and the melting point is 106 °C. Regarding `CC(c1ccccc1)c1ccccc1`, the boiling point was determined as 273 °C, the log10 vapour pressure (mmHg) was -1.85 and the melting point was -17.9 °C. For `CSC#N`, in that order: 133 °C, 1.08 and -5 °C. In turn, `c1ccc(CCCc2ccccc2)cc1` displayed a boiling point of 300 °C and a melting point of 6 °C.

Consider `COCCN`, for which the boiling point turned out to be 95 °C. Compound `Oc1cc(O)cc(-c2cc(O)cc(O)c2)c1` came in with a melting point of 310 °C. The compound `CC(C)C1=CC(=O)C(C)CC1` (stereo not given) gave a boiling point of 236 °C. For `CCCC(C)CC(C)C` (stereo not given), the boiling point turned out to be 133 °C and the log10 biodegradation half-life (days) stood at 0.778. `C[C@]12C=CC(=O)C=C1CC[C@@H]1[C@@H]2CC[C@@]2(C)[C@H]1CC[C@]2(C)O` had a melting point of 164 °C. The compound `CCCCCCC(=O)c1ccccc1` had a boiling point of 283 °C and a melting point of 16.4 °C. Taken in the same sequence, the figures for `CC(C)COC(=O)CCCCC(=O)OCC(C)C` were 279 °C and -20 °C.

Take `CCCCCCCCC1CCCCC1`: the boiling point is 264 °C, the log10 vapour pressure (mmHg) is -2.04 and the melting point was -20 °C. For `O=Cc1ccoc1`, the boiling point was found to be 145 °C. In the case of `NC(=O)C(F)(F)F`, the boiling point is 162 °C and the melting point came to 72.5 °C. On to `Cc1cc(Cl)ccc1N`, for which the boiling point is 244 °C, the melting point came out at 30.3 °C and the ready biodegradability result is listed as “not readily biodegradable”. In the case of `c1ccc2nc3ccc4ccccc4c3cc2c1`, the log10 Koc (L/kg) is 4.39. Take `Cc1cc(Br)ccc1N`: the boiling point came out at 240 °C and the melting point came to 59.5 °C. For `O=c1c2ccccc2c(=O)c2c1ccc1[nH]c3c(ccc4c(=O)c5ccccc5c(=O)c43)[nH]c12`, the ready biodegradability entry is “not readily biodegradable”. With `COc1cc(OC)nc(Sc2cccc(Cl)c2C(=O)[O][Na])n1`, the log10 Koc (L/kg) came to 1.15. `NCC(F)(F)F` yielded a boiling point of 37.5 °C. In turn, `O=[N+]([O-])c1ccc(Nc2ccccc2)cc1` registered a melting point of 135 °C.

As for `CN1C(=O)C(O)N=C(c2ccccc2Cl)c2cc(Cl)ccc21` (stereo not given), the melting point came out at 206 °C. Consider `Oc1ccccc1F`, for which the boiling point was 152 °C, the log10 Henry constant (atm·m³/mol) is -5.49, the melting point worked out at 16.1 °C and the ready biodegradability result was “not readily biodegradable”.

In the case of `COc1ccc2c3c([nH]c2c1)[C@H]1C[C@H]2[C@H](C[C@@H](O)[C@H](OC)[C@H]2C(=O)O)CN1CC3`, the melting point worked out at 242 °C.

In turn, `COc1ccc(NC(=O)N(C)C)cc1Cl` registered a log10 Koc (L/kg) of 1.72 and a melting point of 126 °C. In the case of `C#CC(C)Cl` (stereo not given), the boiling point came to 68.5 °C. Take `N#Cc1ccc(C#N)cc1`: the melting point was 224 °C and the ready biodegradability result is reported as “not readily biodegradable”. As to `Clc1ccc(CSc2ccc(Cl)cc2)cc1`, the melting point was determined as 75 °C. On to `O=C(O)c1cc(Cl)c(O)c(Cl)c1`, for which the melting point is 265 °C.

As a reminder, the boiling point is the temperature of boiling at a given pressure. Usually melting point stands for the temperature of the solid-liquid transition.
